In ChEMBL document CHEMBL3243922, “Synthesis, redox characteristics, and in vitro norepinephrine uptake inhibiting properties of 2-(2-mercapto-4,5-dihydroxyphenyl)ethylamine (6-mercaptodopamine)” (J Med Chem, 1979):

Tests used:
Details in all cases: in vivo
Rattus norvegicus [1] = assay: Pressor activity in iv dosed normotensive Sprague-Dawley rat assessed as dose required for increasing systolic blood pressure […] 30 mm Hg; format: organism-based, Artery
Rattus norvegicus [2] = assay: Central neurotoxicity in iv dosed Sprague-Dawley rat brain hypothalamus assessed as inhibition of [3H]norepinephrine uptake after 24 hrs by scintillation counting analysis; format: organism-based
Rattus norvegicus [3] = assay: Neurotoxicity in Sprague-Dawley rat heart atria assessed as inhibition of [3H]norepinephrine uptake at 20 to 160 mg/kg, iv after 24 hrs by scintillation counting analysis; format: toxicity, organism-based; design: dose 20-160 mg/kg, route intravenous
Rattus norvegicus [4] = assay: Neurotoxicity in Sprague-Dawley rat heart atria assessed as inhibition of [3H]norepinephrine uptake at 10 mg/kg, iv after 24 hrs by scintillation counting analysis; format: toxicity, organism-based; design: dose 10 mg/kg, route intravenous

SMILES	Activity (Rattus norvegicus [1])	Activity (Rattus norvegicus [2])	Activity (Rattus norvegicus [3])	Activity (Rattus norvegicus [4])
CC(N)Cc1cc(O)c(O)cc1O (stereo not drawn)	6 ×10⁻⁵ g			
C[C@H](N)Cc1ccc(O)c(O)c1	3.1 µg			
Cl.NCCc1cc(O)c(O)cc1S	1.3 ×10⁻⁴ g	Non-toxic	Toxic	
NCCc1ccc(O)c(O)c1 [DOPAMINE]	2.9 µg			
NCCc1cc(O)c(O)cc1O [OXIDOPAMINE]	1.6 ×10⁻⁵ g			Toxic
